The values below come from US20130029970A1 (priority 2009, published 2013).

Experiment [1] concerns PBQ-induced writhing in the mouse. In words: Phenylbenzoquinone-induced (PBQ) writhing model.
Experiment [2] has as its system CFA induced inflammatory pain in the rat. Kind of experiment: Complete Freund's Adjuvant (CFA) induced inflammatory pain model. The format is in vivo. The procedure:
In this rat model of inflammatory pain, 100 uL of CFA diluted 1:1 with phosphate buffered saline was injected into the subplantar region of the right hind paw on Day 1. On day 3, test compounds were administered orally and rats were assessed for their reaction to a mechanical stimuli applied via an Analgesy® meter. Injection of CFA increased the rats' reactivity to painful stimuli and this was reflected in a decrease in the amount of pressure they could tolerate prior to withdrawing their paw from the apparatus (hyperalgesia). An anti-hyperalgesic activity of the test compound was denoted by an increase in the amount of pressure they can tolerate prior to withdrawing their paw from the apparatus. The mean±SEM for each treatment group was determined and a Dunnett test was applied for comparison between vehicle and treated groups. Differences were considered significant at P<0.05. (see Bertorelli et al. 1999 Brit Journ Pharmacol 128:1252).

The structures appear in SMILES notation. “And” between values parts separate entries of the source, which are not always exact repeats. Equal entries are not always repeated.

Turning to `Cc1cc2cc(C(=O)c3ccncn3)sc2n1CCN1CCOCC1` [Compound I-34], in experiment [1] (Dose 30, IP), the “Number of Writhes” value was 3.4 ± 0.97.
As for `COc1ccc(C(=O)c2cc3cc(C)n(CCN4CCOCC4)c3s2)cc1` [Compound I-36], the “Post CFA PWT (grams)” value in experiment [2] (3 mg/kg PO) was determined as 114.3 ± 11.8 grams; in experiment [2] (10 mg/kg PO), 90.7 ± 10.4 grams; in experiment [2] (30 mg/kg PO), 157.3 ± 11.4 grams; in experiment [2] (56 mg/kg PO), 191 ± 12.1 grams. Further, the “Number of Writhes” value worked out at 14.5 ± 1.59 in experiment [1] (Dose 3, PO); 12.1 ± 2.8 in experiment [1] (Dose 10, PO); 7.3 ± 2.5 in experiment [1] (Dose 30, PO).
On to `Cc1cc2cc(C(=O)c3cccc(Cl)c3Cl)sc2n1CCCNS(C)(=O)=O` [Compound I-37], for which the “Number of Writhes” value in experiment [1] (Dose 30, PO) worked out at 13.0 ± 1.65.
Turning to `Cc1cc2cc(C(=O)c3cccc(Cl)c3Cl)sc2n1S(=O)(=O)N(C)C` [Compound I-41], the “Number of Writhes” value in experiment [1] (Dose 30, IP) amounted to 5.91 ± 2.04.
Take `CCS(=O)(=O)n1c(C)cc2cc(C(=O)c3cccnc3Cl)sc21` [Compound I-43]: in experiment [1] (Dose 30, PO), the “Number of Writhes” value was determined as 13.8 ± 1.88.
With `COc1ccc(C(=O)c2cc3cc(C)n(CCCNS(C)(=O)=O)c3s2)cc1` [Compound I-44], the “Post CFA PWT (grams)” value is recorded as 164.4 ± 8.4 grams in experiment [2] (10 mg/kg PO), 153.7 ± 10.7 grams in experiment [2] (30 mg/kg PO) and 150 ± 13.8 grams in experiment [2] (56 mg/kg PO). Further, the “Number of Writhes” value in experiment [1] (Dose 3, PO) is 13.9 ± 1.4; in experiment [1] (Dose 10, PO) it was 9.4 ± 2.6; in experiment [1] (Dose 30, PO), 8.25 ± 2.54 and 9.7 ± 1.7.
Take `COc1ccc(C(=O)c2cc3cc(C)n(CCN4CCOCC4)c3s2)cn1` [Compound I-58]: the “Post CFA PWT (grams)” value in experiment [2] (60 mg/kg PO) is listed as 170.3 ± 19.7 grams. The “Number of Writhes” value in experiment [1] (Dose 30, IP) came out at 1.1 ± 0.38; in experiment [1] (Dose 30, PO) it was 15.9 ± 2.7.
Turning to `COc1ccc(C(=O)c2cc3cc(C)n(CCN4CCOCC4)c3s2)c(F)c1` [Compound I-68], in experiment [2] (60 mg/kg PO), the “Post CFA PWT (grams)” value was 178.7 ± 24.4 grams. Also, the “Number of Writhes” value in experiment [1] (Dose 3, PO) is 9.6 ± 2.2; in experiment [1] (Dose 10, PO), 5.92 ± 1.55.
Turning to `COc1ccc(C(=O)c2cc3cc(C)n(CCN4CCOCC4)c3s2)c(Cl)c1` [Compound I-70], the “Post CFA PWT (grams)” value in experiment [2] (60 mg/kg PO) was 195.7 ± 16.4 grams. In addition, the “Number of Writhes” value in experiment [1] (Dose 30, PO) came to 3.2 ± 1.57.
Regarding `COc1ccc(C(=O)c2cc3cc(C)n(CCN4CCCCC4)c3s2)cc1` [Compound I-78], the “Post CFA PWT (grams)” value in experiment [2] (60 mg/kg PO) is reported as 181.7 ± 22.3 grams.
For the compound `COc1ccc(C(=O)c2cc3cc(C)n(CCCNS(C)(=O)=O)c3s2)c(F)c1` [Compound I-87], in experiment [2] (60 mg/kg PO), the “Post CFA PWT (grams)” value is on record as 100.7 ± 11.3 grams. Moreover, the “Number of Writhes” value in experiment [1] (Dose 30, PO) was 17.2 ± 2.5.
With `CCOc1ccc(C(=O)c2cc3cc(C)n(CCN4CCOCC4)c3s2)c(F)c1` [Compound I-89], the “Post CFA PWT (grams)” value in experiment [2] (60 mg/kg PO) is on record as 178.7 ± 19.6 grams.
`CCOc1ccc(C(=O)c2cc3cc(C)n(CCCNS(C)(=O)=O)c3s2)c(F)c1` [Compound I-95]: the “Post CFA PWT (grams)” value in experiment [2] (60 mg/kg PO) amounted to 111.7 ± 20.5 grams.
As to `COc1ccc(C(=O)c2cc3cc(C)n(CCCNS(C)(=O)=O)c3s2)cn1` [Compound I-109], in experiment [2] (60 mg/kg PO), the “Post CFA PWT (grams)” value is on record as 132 ± 12.3 grams. For the same compound, the “Number of Writhes” value stood at 13.3 ± 2.3 in experiment [1] (Dose 3, PO); 8.93 ± 2.28 in experiment [1] (Dose 10, PO); 5.78 ± 1.75 in experiment [1] (Dose 30, PO).
Consider `Cc1cc2cc(C(=O)c3ccc(OC(C)C)cc3)sc2n1CCN1CCOCC1` [Compound I-111], for which the “Post CFA PWT (grams)” value in experiment [2] (60 mg/kg PO) came to 140.7 ± 13.7 grams.
The same measure, in the same setting: with `Cc1ccc(C(=O)c2cc3cc(C)n(CCN4CCOCC4)c3s2)cc1` [Compound I-124] the figure was 196.7 ± 27.3 grams.
Regarding `COc1ccc(C(=O)c2cc3cc(C)n(CC4CCOCC4)c3s2)cn1` [Compound I-144], the “Number of Writhes” value stood at 5.04 ± 1.8 in experiment [1] (Dose 3, PO); 3.24 ± 1.08 in experiment [1] (Dose 10, PO); 1.8 ± 0.72 in experiment [1] (Dose 30, PO).
